Results on one compound are retold here after paper PMC6874683, “Pyrrothiogatain acts as an inhibitor of GATA family proteins and inhibits Th2 cell differentiation in vitro” (Scientific Reports, 2019).

The subject of assay [1] is GATA3-dependent IL-5 promoter activation. Kind of assay: IL-5 promoter luciferase reporter assay in HEK293T cells. The format is cell-based. Particulars: PMA 30 ng/mL, 0 to 30 µM. The procedure: The IL-5 promoter activity was determined as previously described[22],[23]. In brief, HEK293T cells were co-transfected with a firefly luciferase reporter (pGL3-IL-5 promoter), a renilla luciferase plasmid, and an expression vector (pcDNA3.1) using TransIT-LTI Regent (Cat#MIR2304, Mirus). Six hours after transfection, cells were treated with pyrrothiogatain (0 to 30 µM) and PMA (30 ng/mL) for 18 hours. The luciferase activity was measured using a Dual-Luciferase Reporter Assay System (cat#E1910, Promega).

The target of assay [2] is T1, GATA3 (Homo sapiens, UniProt P23771).
T1 construct: we synthesized the recombinant full-length GATA3 protein with an N-terminal FLAG tag using the wheat cell-free system; made in house; host or cells: wheat cell-free protein synthesis system (WEPRO1240 kit)
The assay is described as follows: AlphaScreen DNA-binding assay, GATA3 with GATA consensus DNA. The procedure: (§1) For the protein-DNA binding assay on a 384-well AlphaPlate (Perkin Elmer), 10 μL of bait protein mixture containing 1 µL FLAG-tagged protein in AlphaScreen Buffer (100 mM Tris-HCl (pH 8.0), 150 mM NaCl, 0.1% Tween 20, and 1 mg/mL BSA) and 5 µL biotinylated oligonucleotide (0–10 µM final concentration) in AlphaScreen Buffer were dispended into the AlphaPlate. Then, the plate was incubated at 26 °C for 1 h. After incubation, 10 μL of the detection mixture containing 0.4 µg/mL Anti-DYKDDDDK antibody (1E6, Wako), 0.1 μL streptavidin-conjugated AlphaScreen donor beads, and 0.1 μL protein A-conjugated AlphaScreen acceptor beads in AlphaScreen Buffer was mixed and incubated at 26 °C for 1 h, and then, the AlphaScreen signal was detected using an EnVision device with the AlphaScreen signal detection program (PerkinElmer).
(§2) For the AlphaScreen-based chemical library screening, we used a diverse set of 9,600 synthesized chemicals established by the Drug Discovery Initiative (The University of Tokyo, Tokyo, Japan). All chemical compounds (10 mM) were dissolved in DMSO, and were pre-dispensed into a 384-well Alphaplate (250 nL/well). […] The AlphaScreen signal was detected using an EnVision device with the AlphaScreen signal detection program (PerkinElmer). […]

The target of assay [3] is T2, GATA4 (Homo sapiens, UniProt P43694).
T2 construct: we tried to synthesize their full-length proteins using the cell-free system; made in house; host or cells: wheat cell-free protein synthesis system (WEPRO1240 kit)
Kind of assay: AlphaScreen DNA-binding assay, GATA4. Particulars: pyrrothiogatain 0 to 200 µM. The procedure:
as §1, §2

Assay [4] concerns the target T3, GATA3-SOX4 interaction (Homo sapiens, UniProt P23771).
T3 construct: we synthesized the recombinant full-length GATA3 protein with an N-terminal FLAG tag using the wheat cell-free system; made in house; host or cells: wheat cell-free protein synthesis system (WEPRO1240 kit), BirA added for biotinylation
Kind of assay: Immunoprecipitation of GATA3 and SOX4. The format is binding. Particulars: 0 to 100 µM. The procedure:
Co-immunoprecipitation analysis of GATA3 and SOX4 was conducted as follows. Immunoprecipitation of FLAG-tagged GATA3 in the presence of pyrrothiogatain (0 to 100 µM) was performed by mixing recombinant FLAG-GATA3 and AGIA-SOX4 with 10 µL of anti-FLAG M2 affinity agarose gel (cat#A2220, Sigma-Aldrich) by rotation at 4 °C for 2 h. The agarose gels were washed three times, and then the immunoprecipitated protein was detected by immunoblotting using anti-FLAG M2 antibody and anti-AGIA-HRP[36].

Where “and” joins values, the source holds several entries; their conditions need not be identical. Equal values may be shown once.

T1 sequence (P23771 whole entry, species assumed): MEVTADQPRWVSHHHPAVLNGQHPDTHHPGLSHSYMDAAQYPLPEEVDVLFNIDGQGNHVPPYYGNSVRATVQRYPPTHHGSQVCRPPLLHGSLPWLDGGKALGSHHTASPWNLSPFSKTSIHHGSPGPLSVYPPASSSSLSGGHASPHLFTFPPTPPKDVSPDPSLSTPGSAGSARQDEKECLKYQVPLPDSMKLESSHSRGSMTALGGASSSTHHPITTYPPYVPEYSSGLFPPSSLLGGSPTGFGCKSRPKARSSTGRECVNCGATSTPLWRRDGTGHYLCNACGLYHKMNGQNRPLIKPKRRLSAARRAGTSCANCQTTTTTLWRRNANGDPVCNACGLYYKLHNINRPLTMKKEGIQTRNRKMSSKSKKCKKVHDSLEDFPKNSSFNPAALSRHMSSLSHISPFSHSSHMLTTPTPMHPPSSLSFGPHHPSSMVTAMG
T2 sequence (P43694 whole entry, species assumed): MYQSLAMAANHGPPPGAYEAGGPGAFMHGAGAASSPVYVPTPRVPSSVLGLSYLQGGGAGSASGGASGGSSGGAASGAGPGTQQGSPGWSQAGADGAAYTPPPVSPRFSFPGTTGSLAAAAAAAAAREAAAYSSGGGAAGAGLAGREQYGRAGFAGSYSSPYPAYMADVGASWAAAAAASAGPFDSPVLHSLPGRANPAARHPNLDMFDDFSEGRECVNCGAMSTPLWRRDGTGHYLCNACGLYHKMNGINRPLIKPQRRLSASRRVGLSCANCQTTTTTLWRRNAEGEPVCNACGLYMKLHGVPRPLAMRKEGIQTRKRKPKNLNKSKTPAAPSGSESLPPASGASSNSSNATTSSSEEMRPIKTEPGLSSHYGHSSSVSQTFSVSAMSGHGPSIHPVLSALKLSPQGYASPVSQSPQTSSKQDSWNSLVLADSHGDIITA
T3 sequence (P23771 whole entry): as the sequence (P23771 whole entry, species assumed) above

In the case of `Cc1ccc(C)n1-c1ccsc1C(=O)O` [Pyrrothiogatain, 3-(2,5-dimethyl-1H-pyrrol-1-yl)thiophene-2-carboxylic acid], the “GATA3-dependent transcriptional activation of the IL-5 promoter” value in assay [1] is “significantly suppressed”. For the same compound, the IC50 is ~50 µM and 54.7 µM in assay [2] (AlphaScreen, pyrrothiogatain 0 to 200 µM); ~50 µM and 48 µM in assay [3]. Also, in assay [2] (second screen, 0 to 10 µM), the “Inhibition of GATA3–DNA binding in the second screen” value is on record as “specifically inhibited”. The “GATA3-SOX4 interaction by immunoprecipitation” value in assay [4] is recorded as “dose-dependent decrease”.
